In patent US20090117563A1, “Identification of TRPML3 (MCOLN3) as a Salty Taste Receptor and Use in Assays for Identifying Taste (Salty) Modulators and/or Therapeutics that Modulate Sodium Transport, Absorption or Excretion and/or Aldosterone and/or Vasopressin Production or Release” (priority 2007, published 2009):

Target: T1, A419P TRPML3 (Homo sapiens, UniProt Q8TDD5, A419P)
T1 construct: expressed in transfected cells
T1 sequence (Q8TDD5 1-553 A419P): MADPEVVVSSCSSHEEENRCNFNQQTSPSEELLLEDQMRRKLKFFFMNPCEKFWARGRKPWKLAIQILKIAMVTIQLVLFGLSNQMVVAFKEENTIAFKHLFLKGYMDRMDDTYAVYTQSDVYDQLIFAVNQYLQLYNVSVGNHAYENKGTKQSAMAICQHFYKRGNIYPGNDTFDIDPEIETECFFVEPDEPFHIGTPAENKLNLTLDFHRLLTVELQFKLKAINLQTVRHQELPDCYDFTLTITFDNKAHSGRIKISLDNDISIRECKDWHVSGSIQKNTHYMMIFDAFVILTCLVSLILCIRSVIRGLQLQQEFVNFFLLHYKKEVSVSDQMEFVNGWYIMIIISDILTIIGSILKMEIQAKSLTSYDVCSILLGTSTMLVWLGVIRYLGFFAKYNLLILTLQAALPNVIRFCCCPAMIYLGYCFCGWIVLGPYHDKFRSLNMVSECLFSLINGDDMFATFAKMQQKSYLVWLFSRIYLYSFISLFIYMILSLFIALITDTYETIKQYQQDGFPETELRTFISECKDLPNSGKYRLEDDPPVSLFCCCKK
Test: Whole cell voltage clamp, A419P TRPML3 stably expressed in CHO cells
Format: cell-based
Conditions: 1 mM GdCl3 compared to buffer alone
Source text: The whole cell voltage clamp technique is an electrophysiology method that measures the macroscopic electrical current flowing across the entire plasma membrane though protein channels. Live mammalian cells are placed in a special microscope chamber containing extracellular solution. Guided by a micromanipulator and under visual control, a small diameter glass pipette filled with an electrically conductive salt solution is first attached to the cell membrane using gentle negative pressure resulting in a high resistance gigaOhm seal. The membrane patch within the pipette is disrupted using further suction resulting in the whole cell patch clamp configuration. The whole cell patch clamp configuration allows the combined measurement of all ion channels proteins within the membrane or macroscopic current. Using the patch clamp amplifier in combination with the whole-cell patch clamp configuration allows the operator to control the voltage, or potential difference across the entire cell membrane, as well as the both the internal and external ionic composition of the cell. […]

[Cl][Gd]([Cl])[Cl] [gadolinium, gadolinium chloride]
effect on inward current (listed as Gadolinium chloride): blocked | effect on inward current (listed as GdCl3): decrease in inward current
